Assay results: patent US20040162328A1, “Compounds of the family of 3-alkyl-(4,5-diphenyl-imidazol-1-yl) and their use as soothing agents” (priority 2001, published 2004)
Like-named read-outs stand apart in the source and are kept apart here.

Test system: interleukin-8 secreted by normal human epidermal keratinocytes (NHEKs)
Assay: Inhibition of interleukin-8 secretion by NHEK cells after stimulation with PMA as irritant agent
Assay type: cell-based
Settings: 160 nM PMA
Excerpt: Inhibition of the response of superficial epidermal cells to an irritant agent by assay of the interleukin-8 secreted by normal human epidermal keratinocytes (NHEKS) after stimulation with phorbol 12-myristate 13-acetate (PMA) as irritant agent.
This study uses the test developed by Wilmer [Wilmer, J. L. et al., J. invest. Dermatol., 102: 915-922 (1994)]. This test allows the evaluation of the antiirritant potential of various molecules, on a human keratinocyte (NHEK) cell line. In this test, an irritant situation is mimicked by exacerbating the production of IL-8 of the NHEKs by adding PMA to the culture medium, IL-8 being involved in initiating the keratinocyte irritation. The antiirritant effect of a molecule is then measured by means of its inhibitory action with respect to this exacerbated production.
Normal human epidermal keratinocytes (NHEKs) sold by the company Clonetics and distributed in France by the company TEBU are incubated in the presence of 160 nM of PMA for 24 hours at 37° C. In response to the PMA, the production of the chemotactic agent interleukin-8 (IL-8) is measured by enzymatic assay using an assay kit (Elisa D8050) sold by the company R&D. The absorbance values are measured using a microplate reader (MRX/Dynatech) according to the procedures supplied with the assay kit. To evaluate the antiirritant protective effect of the various compounds, the production of the chemotactic marker IL-8 by the human keratinocytes is measured in the presence of various concentrations of the test compound.
The results are expressed as a percentage of the control values after subtracting the background noise and as a percentage of inhibition of these values obtained in the presence of the compounds.

[1] = Study No. 2 (Comparative Tests), compound at 10 μM, same batch of NHEK cells, 24 hours, read-out: % inhibition of secretion of IL-8

| Structure (SMILES) | inhibition at 10 µM [1] | inhibition at 1 µM (Study No. 1, compound at 1 μM, NHEK, 24 hours at 37° C., read-out: % inhibition of secretion of IL-8 (at 1 μM)) | inhibition at 10 µM (Study No. 1, compound at 10 μM, NHEK, 24 hours at 37° C., read-out: % inhibition of secretion of IL-8 (at 10 μM)) |
| --- | --- | --- | --- |
| COC(=O)CCCCn1cnc(-c2ccccc2)c1-c1ccccc1 [Example 2, methyl (4,5-diphenyl-imidazole)-1-ylbutyl-4-carboxylate] | 10% | – | – |
| c1ccc(-c2ncn(CCCN3CCCCC3)c2-c2ccccc2)cc1 [Example 6] | 41% | – | – |
| O=C1c2ccccc2C(=O)N1CCCCn1cnc(-c2ccccc2)c1-c1ccccc1 [Example 3, 4-phthalimidebutyl-(4,5-diphenyl-imidazol)-1-yl] | 39% | – | – |
| COC(=O)CCCn1cnc(-c2ccccc2)c1-c1ccccc1 [Example 5, methyl (4,5-diphenyl-imidazol)-1-ylpropyl-3-carboxylate] | 22% | – | – |
| c1ccc(-c2ncn(CCN3CCCCC3)c2-c2ccccc2)cc1 [JP 44 029 199, reference compound] | < 10% | – | – |
| c1ccc(-c2ncn(CCCN3CCOCC3)c2-c2ccccc2)cc1 [Example 1, 4-[3-(4,5-diphenylimidazol-1-yl)-propyl]morpholine] | 35% | 86% | 95% |
| O=C1c2ccccc2C(=O)N1CCCn1cnc(-c2ccccc2)c1-c1ccccc1 [Example 4, 3-phthalimidepropyl-(4,5-diphenyl-imidazol)-1-yl] | 37% | – | – |
